Consider one compound from patent US9606124B2, “Methods of detecting and treating stem-cell containing solid tumors” (The Regents of The University of Michigan, priority 2008, dated 2017).

“Also recorded” adds a separate entry of the source. Read-outs that look alike come from different tables or passages of the source.

One series has as its system HCC1954 cells. The series can be described thus: MTT assay, cell viability of HCC1954 cells. In kind it is cell-based, human. The following applies: repertaxin 100 nM, antibodies 10 μg/ml. The source says: (§1) Cell viability. […] Nuclei were counterstained with DAPI/antifade (Invitrogen).
On the technique in general: Formazan colour is commonly taken as a measure of viable cells.

Series [1] has as its system ALDEFLUOR-positive population of HCC1954. The series can be described thus: ALDEFLUOR assay on HCC1954 cells in vitro. Format: cell-based, human. Conditions: three days, repertaxin 100 nM, antibodies 10 μg/ml. The procedure: ALDEFLUOR assay. […] In order to eliminate cells of mouse origin from the xenotransplanted tumors, cell population was stained with an anti-H2Kd antibody (BD biosciences, 1/200, 20 min on ice) followed by staining with a secondary antibody labeled with phycoerythrin (PE) (Jackson labs, 1/250, 20 min on ice).

In series [2] the test system is FAK Tyr397 and AKT Ser473 phosphorylation. The experiment in a line: Western blotting of FAK/AKT activation in HCC1954. Format: cell-based, human. Conditions: 100 nM, two days. As to the method:
(§2) Western blotting. Cells were lysed in a laemmli buffer and loaded onto SDS-polyacrylamide gels. Blots were incubated with the respective primary antibodies diluted in TBST (containing 0.1% Tween20 and 2% BSA) either overnight at 4o, or 2 hours at room temperature. Blots were washed and incubated with appropriate secondary antibodies (GE Healthcare, UK) and detected using SuperSignal West Pico Chemiluminescent Substrate (Pierce).
Background: In western blotting, separated proteins are transferred to a membrane and probed.

The test system of series [3] is phospho-FAK and phospho-AKT. The series can be described thus: Immunofluorescence staining of p-FAK and p-AKT in SUM159 cells. Format: cell-based, human. The following applies: for phospho-FAK and phospho-AKT expression (immunofluorescence): sorted CXCR1-positive cells. As to the method: The non-treated SUM159 cells presented 80% of cells positive in the cytoplasm for FOXOA3. […] The change in FOXOA3 cellular localation from the cytoplasm to the nucleus indicates an activation of FOXOA3 protein.
(§3) Immunostaining. For immunofluorescent staining, sorted CXCR1-positive cells were fixed with 95% methanol at −20° C. for 10 minutes. Cells were rehydrated in PBS and incubated with respective antibodies at room temperature for 1 hour. Primary antibodies used were P-FAK (1:50, Cell Signaling Technology), P-AKT (1:300, Cell Signaling Technology), and FOXO3a (1:250, Cell Signaling Technology). Slides were then washed and incubated 30 minutes with PE conjugated secondary antibodies (Jackson labs). The nuclei were counterstained with DAPI/antifade (Invitrogen) and coverslipped. […] Immunohistochemistry for the detection of ALDH1 (1:100, BD biosciences), P-FAK, P-AKT, FOXO3a expression was done on paraffin section (Ginestier et al. Am. J Pathol. 161:1223-1233, herein incorporated by reference in its entirety). Staining was done utilizing the Histostainplus kit (Zymed laboratories). Diaminobenzidine (DAB) or 3-amino-9-ethylcarbazole (AEC) was used as chromogen and sections were counterstained with hematoxylin.

The test system of series [4] is SUM159 PTEN-siRNA and SUM159 Ad-FAK cells. The series can be described thus: Repertaxin on SUM159 PTEN-siRNA and SUM159 Ad-FAK cells (western, immunofluorescence, MTT, ALDEFLUOR). Format: cell-based, human. Conditions: for FAK and AKT activity / FOXO3A activation in cells with PTEN deletion or FAK overexpression: 100 nM, two days.
From the text: as §1
ALDEFLUOR assay. The ALDEFLUOR kit (StemCell technologies) was used to isolate the population with high ALDH enzymatic activity using a FACStarPLUS (Becton Dickinson) as previously described (Ginestier et al. Cell Stem Cell 1:555-567, herein incorporated by reference in its entirety). In order to eliminate cells of mouse origin from the xenotransplanted tumors, cell population was stained with an anti-H2Kd antibody (BD biosciences, 1/200, 20 min on ice) followed by staining with a secondary antibody labeled with phycoerythrin (PE) (Jackson labs, 1/250, 20 min on ice).
as §2, §3
(§4) Virus infection. […] All lentiviral constructs were prepared by the University of Michigan Vector. An adenoviral construct for the overexpression of FAK (Ad-FAK-GFP) was also utilized (Luo et al. Cancer Res. 69:466-474, herein incorporated by reference in its entirety). Cells infection with different vectors was performed as previously described (Charafe-Jauffret et al. Cancer Res. 69:1302-1313, herein incorporated by reference in its entirety). Efficiency of infection was verified by measuring the percentage of DsRed or GFP expressing cells.

The next series has as its system HCC1954 PTEN-siRNA cells. The experiment in a line: Repertaxin on HCC1954 PTEN-siRNA cells (western, MTT). In kind it is cell-based, human. As to the method:
as §1, §2, §4

The test system of series [5] is SUM159 cell line and human breast cancer xenografts MC1, UM2, UM3. The experiment in a line: Tumor growth of breast cancer xenografts in the mammary fat pad. Format: in vivo, NOD/SCID mice. Conditions: repertaxin 15 mg/Kg s.c. twice a day 28 days, docetaxel 10 mg/Kg i.p. once a week, start at tumor size about 4 mm. The procedure:
For each sample, 50,000 cells were injected into the mammary fat pad of NOD-SCID mice which were monitored for tumor size. Injections were started when the tumor size was about 4 mm.
(§5) Animal model. […] Cells from these tumors were transplanted orthotopically in the humanized cleared fat-pad of NOD/SCID mice, without cultivation in vitro. […] 50,000 cells from each xenotransplants were injected in the humanized fat pad of NOD/SCID mice and monitored the tumor growth. […] The animals were euthanized when the tumors were approximately 1.5 cm in the largest diameter, to avoid tumor necrosis and in compliance with regulations for use of vertebrate animal in research. A portion of each fat pad injected was fixed in formalin and embedded in paraffin for histological analysis. The rest of the tumor cells were re-implantated into secondary NOD/SCID mice. Serial dilutions of cells were utilized for the re-implantation with injection of 10,000, 1,000, and 100 cells for each treated tumor.

In series [6] the test system is CD44+/CD24- cell population of MC1, UM2, UM3 xenografts. The series can be described thus: CD44+/CD24- cells in treated tumors (flow cytometry). Also on record: species or system NOD/SCID mice. Conditions: mouse, in vivo. As to the method: as §5
Flow cytometry analysis. […] CD95/FAS staining were performed utilizing an anti-CD95 labeled APC (1:20, BD biosciences). […] Fresh cells were stained with 1 μg/ml PI (Sigma) for 5 min for viability.
Background: In flow cytometry, cells or beads pass a laser one at a time.

Another series deals with phospho-AKT. The experiment in a line: Immunohistochemistry of phospho-AKT in xenotransplants. Also on record: species or system NOD/SCID mice. Conditions: mouse, in vivo. The procedure: as §3
The next series deals with MDA-MB-453 cells. The experiment in a line: Metastasis formation after intracardiac injection of MDA-MB-453 cells (bioluminescence). Format: in vivo, NOD/SCID mice. The following applies: 250,000 cells intracardiac, repertaxin 15 mg/kg s.c. twice a day 28 days vs saline. The procedure:
Intracardiac inoculation. […] Twelve hours after intracardiac injections, mice were begun on twice per day repertaxin injections or saline for the controls. Bioluminescence detection. Baseline bioluminescence was assessed before inoculation and each week thereafter inoculations. Bioluminescence detection procedures was performed as previously described ([…] et al. Cancer Res. 69:1302-1313, herein incorporated by reference in its entirety). Normalized photon flux represents the ratio of the photon flux detected each week after inoculations and the photon flux detected before inoculation.

For series [7] the following is noted: phase I and phase II clinical trials, cited from earlier work.

For `CC(C)Cc1ccc([C@@H](C)C(=O)NS(C)(=O)=O)cc1` [Repertaxin], in the series with HCC1954 cells, the “cell viability (MTT)” value was “decrease in cell viability was observed after 3 days of treatment; also recorded: significant reduction”. For the same compound, the ALDEFLUOR-positive population entry in series [1] was “significant reduction”. Besides, the “FAK Tyr397 and AKT Ser473 phosphorylation (western blot)” value in [2] is “decrease in FAK Tyr397 and AKT Ser473 phosphorylation”; in series [2] (listed as repertaxin), “decrease in FAK Tyr^397 and AKT Ser^473 phosphorylation”. Besides, in series [3] (SUM159, 100 nM, 2 days), the “p-FAK and p-AKT (immunofluorescence)” value is “complete inactivation”. The “phospho-FAK and phospho-AKT expression (immunofluorescence)” value in series [3] was “disappearance of phospho-FAK”; in series [3] (listed as repertaxin), “dramatic decrease of phospho-FAK and phospho-AKT expression”. The “ALDEFLUOR-positive population of cells with PTEN deletion or FAK overexpression” value in series [4] is “did not alter the proportion of ALDEFLUOR-positive SUM159 PTEN knockdown cells”; in [4] (listed as repertaxin), “maintenance of the ALDELFUOR-positive populations”. Besides, the “FAK and AKT activity / FOXO3A activation in cells with PTEN deletion or FAK overexpression” value in series [4] was “did not induce FOXO3A activation”; in [4] (listed as repertaxin), “PTEN knockdown blocked the effect of repertaxin treatment on FAK and AKT activity; also recorded: PTEN deletion and FAK overexpression blocked the effect of repertaxin treatment on FAK and AKT activity”. In [4] (3 days of treatment), the “cell viability (MTT) of cells with PTEN deletion or FAK overexpression” value is reported as “did not display any decrease in cell viability; also recorded: developed resistance to repertaxin”. Further, the “FAK and AKT activity in HCC1954 PTEN-siRNA cells (western blot)” value with HCC1954 PTEN-siRNA cells (100 nM, two days) is on record as “PTEN deletion blocked the effect of repertaxin treatment”. Also, the “cell viability (MTT) of HCC1954 PTEN-siRNA cells” value in the series on HCC1954 PTEN-siRNA cells (3 days of treatment) is recorded as “developed resistance to repertaxin”. Besides, the “tumor size / tumor growth compared to the control” value in series [5] is listed as “moderate impact on tumor growth”; in series [5] (listed as Reperataxin), “no significant difference”; in series [5] (listed as repertaxin), “no difference”. In series [6], the “percent of CD44+/CD24- cells in residual tumors” value is “reduction”. Moreover, in the series on phospho-AKT, the “cells expressing phospho-AKT in treated tumors” value is recorded as “complete inhibition; also recorded: no expression was detected”. Moreover, the “metastasis formation (normalized photon flux)” value in the series on MDA-MB-453 cells was “did not have any effect on metastasis formation”. For the same compound, the “toxicity in clinical studies” value is on record as “lack of toxicity” in series [7] and “little toxicity” in [7] (listed as Repartaxin).
